Reference: US20240325548A1, “DYNAMIC BIOACTIVE SCAFFOLDS AND THERAPEUTIC USES THEREOF AFTER CNS INJURY” (Northwestern University, priority 2021, published 2024)

What was measured:
[1] = system: murine model of severe spinal cord injury (SCI); experiment: Angiogenesis at the site of SCI (DiI labelling, BrdU/CD31); type: in vivo, mouse
Method: (§1) All experiments were conducted at the Simpson Querrey Institute at Northwestern University. 182 CD1 mice (Charles River) were subjects of this study (N=38 Sham, N=38 IKVAV PA2 alone, N=38 IKVAV PA2+FGF2 PA1, N=38 IKVAV PA2+FGF2 PA2, N=12 IKVAV PA1, N=12 Backbone PA, N=6 IKVAV PA4). The age of animals used in the study was in the range of 10-16 weeks. 8 independent in vivo experiments were carried out (injury+PA injection) and each of the 8 experiments had animals of the exact same age which were injected with at least the 4 main treatment groups: Sham, IKVAV PA2 alone, IKVAV PA2+FGF2 PA1, and IKVAV PA2+FGF2 PA2. Animals were anesthetized using 2.5% isoflurane gas with oxygen. […]
(§2) PAs (dissolved in sterile NaCl 0.9% solution at 1 wt %) were injected 24 h after SCI using a glass capillary micropipette (Sutter Instruments, Novato, CA) (outer diameter, 100 m) coated with Sigmacote (Sigma-Aldrich) to reduce surface tension as described elsewhere (19). […] The micropipette was lowered to a depth of 750 m measured from the dorsal surface of the cord, and 4-6 μL of the diluted amphiphile solution was injected at 1 L/min. […]
To assess in vitro tubulogenesis and in vivo angiogenesis, an ImageJ (Fiji) script was established to automatically calculate 1) area fraction of blood vessels, 2) blood vessels length, and 3) number of branches. Images were processed, binarized and analyzed. […]

[2] = system: murine model of severe spinal cord injury (SCI); experiment: Hindlimb locomotor evaluation after SCI (BMS, footprint analysis); type: in vivo, mouse; conditions: three weeks post-injury
Method: as §1
Mice that passed this inclusion criterion were randomized into experimental groups for PA injection and were thereafter evaluated blind to their experimental condition.
as §2
The motor function was evaluated with the locomotor open-field rating scale on the Basso Mouse Scale (BMS). […]

## C16-A2G2E4GIKVAV [IKVAV PA2]
[1]; 12 weeks after injury
  newly formed blood vessels (number of BrdU+/CD31+ cells): very modest but yet significantly increased
[1]; DiI-labelled vessels, transverse sections
  vascular area fraction, vascular length, and branching: did not differ significantly
[2]
  BMS open field locomotor score: 4.3±0.5
